Experimental data: ChEMBL document CHEMBL4251642 (Eur J Med Chem, 2018)
The source made the active and inactive calls. The rule behind the calls is not given here.

Columns and labels:
Influenza A virus [1] = assay: Antiviral activity against Influenza A virus (A/WSN/1933(H1N1)) harboring neuraminidase H275Y mutant infected in MDCK cells assessed as inhibition of virus-induced cytopathic effect after 48 hrs by CellTiter96 Aqueous non-radioactive cell proliferation assay; assay type: functional, organism-based
Influenza A virus [2] = assay: Antiviral activity against Influenza A virus (A/WSN/1933(H1N1)) harboring neuraminidase H275Y mutant infected in BALB/c mouse assessed as mouse survival at 0.96 umol/day, po for 5 consecutive days measured on day 14 post dose; assay type: functional
Mus musculus = assay: Toxicity in BALB/c mouse infected with Influenza A virus (A/WSN/1933(H1N1)) harboring neuraminidase H275Y mutant assessed as change in body weight at 0.96 umol/day, po for 5 consecutive days; assay type: organism-based; details: in vivo
Influenza A virus [3] = assay: Antiviral activity against Influenza A virus (A/WSN/1933(H1N1)) harboring neuraminidase H275Y mutant infected in BALB/c mouse assessed as recovery of mouse weight at 0.96 umol/day, po for 5 consecutive days measured on day 14 post dose; assay type: functional, organism-based
Influenza A virus [4] = assay: Antiviral activity against Influenza A virus (A/WSN/1933(H1N1)) harboring neuraminidase H275Y mutant infected in BALB/c mouse assessed as mouse survival at 0.96 umol/day, po for 5 consecutive days measured on day 10 post dose; assay type: functional

Work on `CCC(CC)OC1C=C(C(=O)O)C[C@H](N)[C@H]1NC(C)=O` (some centres not stated) yielded an EC50 (Influenza A virus [1]) of 3.52 µM.
In the case of `CCC(CC)[C@H](NC(C)=O)[C@@H]1[C@H](OC(=O)NCCCOC(=O)/C=C/c2ccc(O)c(O)c2)[C@@H](C(=O)O)C[C@H]1NC(=N)N`, the EC50 (Influenza A virus [1]) is reported as 0.0155 µM, the Activity (Influenza A virus [2]) is reported as “Active” and the Activity (Mus musculus) is reported as “Non-Toxic”. The Activity (Influenza A virus [3]) was “Active”.
Compound `CCC(CC)[C@H](NC(C)=O)[C@@H]1[C@H](O)[C@@H](C(=O)O)C[C@H]1NC(=N)N` [PERAMIVIR ANHYDROUS] has an EC50 (Influenza A virus [1]) of 0.643 µM.
In the case of `CCC(CC)[C@H](NC(C)=O)[C@@H]1[C@H](OC(=O)NCCCNC(=O)/C=C/c2ccc(O)c(O)c2)[C@@H](C(=O)O)C[C@H]1NC(=N)N`, the EC50 (Influenza A virus [1]) is reported as 0.0181 µM, the Survival (Influenza A virus [2]) is reported as 90% and the Activity (Mus musculus) is reported as “Non-Toxic”. The Activity (Influenza A virus [3]) was “Active”.
With `CCC(CC)[C@H](NC(C)=O)[C@@H]1[C@H](OC(=O)NCCCN)[C@@H](C(=O)O)C[C@H]1NC(=N)N` the EC50 (Influenza A virus [1]) was 0.405 µM.
In the case of `CCC(CC)[C@H](NC(C)=O)[C@@H]1[C@H](OC(=O)NCCCO)[C@@H](C(=O)O)C[C@H]1NC(=N)N`, the EC50 (Influenza A virus [1]) is reported as 1.01 µM.
`CCOC(=O)C1=C[C@@H](OC(CC)CC)[C@H](NC(C)=O)[C@@H](N)C1` [OSELTAMIVIR] showed a Survival (Influenza A virus [4]) of 20%.
In the case of `CCC(CC)[C@H](NC(C)=O)[C@@H]1[C@H](OC(=O)NCCCOCCCc2ccc(O)c(O)c2)[C@@H](C(=O)O)C[C@H]1NC(=N)N`, the EC50 (Influenza A virus [1]) is reported as 0.0716 µM, the Activity (Influenza A virus [2]) is reported as “Active” and the Activity (Mus musculus) is reported as “Non-Toxic”. The Activity (Influenza A virus [3]) was “Active”.
